One data set concerns HVA calcium channels. The data set is classed as cell-based, rat. The settings on record: n=4; 1 µM.
For data set [1], the system named is Female Sprague-Dawley rats. Particulars: rat, in vivo.

For the substance Omega-conotoxin GVIA, the “calcium current amplitudes, % of control amplitudes” value in the data set with HVA calcium channels was determined as 72.8±1.6%.

ω-Conotoxin MVIIA: in data set [1], the “bladder capacity versus irritation control, Dunn's MCT” value is on record as “significantly different than irritation control”; the “directly measured bladder capacity, % of control values” came out at 69%; the “effects on other micturition parameters, such as voiding efficiency” value is “no untoward effects on other micturition parameters”; the “intermicturition interval versus irritation control (AA/Veh 3), Dunn's multiple comparison test” value is listed as “significantly different than irritation control”. In addition, the “intermicturition interval, % of pre-irritation control values” in data set [1] is listed as 81%.

For the origin of these results see patent US7223754B2, “Thiazolidinone, oxazolidinone, and imidazolone derivatives for treating lower urinary tract and related disorders” (Dynogen Pharmaceuticals, Inc., priority 2003, dated 2007).
